We go through 2 compounds from publication PMC7070167, “Cell‐permeable high‐affinity tracers for Gq proteins provide structural insights, reveal distinct binding kinetics and identify small molecule inhibitors” (British Journal of Pharmacology, 2020).

The target of one test is T1, mouse Gαq (Mus musculus, UniProt P21279, D130A/E125D/N126V/V129Y/Y128D).
T1 construct: expressed in transfected cells; membrane preparations
T1 sequence (P21279 1-359 E125D/N126V/Y128D/V129Y/D130A): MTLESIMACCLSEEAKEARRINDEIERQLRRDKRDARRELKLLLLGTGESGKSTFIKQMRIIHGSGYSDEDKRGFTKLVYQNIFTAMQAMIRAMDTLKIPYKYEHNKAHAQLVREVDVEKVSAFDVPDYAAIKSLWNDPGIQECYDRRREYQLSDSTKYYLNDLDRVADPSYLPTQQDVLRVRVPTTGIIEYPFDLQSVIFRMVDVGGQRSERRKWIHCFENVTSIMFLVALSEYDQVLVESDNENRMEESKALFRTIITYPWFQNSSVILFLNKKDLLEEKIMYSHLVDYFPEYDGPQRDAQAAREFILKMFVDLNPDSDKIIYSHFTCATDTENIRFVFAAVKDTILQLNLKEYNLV
The test can be described thus: Competition binding at membranes of HEK-CRISPR-Cas9-Gαq-KO cells expressing Gαq. The procedure:
cDNAs encoding for the α‐subunits of the human G11, G14, G15 and mouse Gq guanine nucleotide‐binding proteins in a pcDNA3.1(+) vector were obtained from E. Kostenis. CRISPR/Cas9‐Gαq‐knockout (KO) HEK293 cells were from M. Yamaguchi. The protein sequences of the human and mouse Gαq proteins differ only by one amino acid in position 171 (alanine in human and serine in mouse). […]. After 16 hr, 3 ml of DMEM containing 10% FBS, 1% of a penicillin/streptomycin solution (final concentrations: penicillin = 100 U·ml^−1, streptomycin = 0.1 mg·ml^−1), and sodium butyrate (5 mM) was added to the packaging cells. They were kept at 32°C and 5% CO2 for 48 hr, during which the viral vectors containing the receptor sequence were produced and released into the surrounding medium. These were harvested, filtered ([…] filter pore diameter), and added to HEK293 cells that had previously been modified via CRISPR/Cas9 genome editing to lack Gαq expression. Polybrene solution (6 μl, 4 mg·ml^−1 in H2O, filtered) was added. After 2.5 hr, the virus‐containing medium was discarded, and DMEM supplemented with 10% FBS and 1% of a penicillin/streptomycin solution (final concentrations: penicillin = 100 U·ml^−1, streptomycin = 0.1 mg·ml^−1) was given to the cells. These were incubated for 2 days, followed by selection of successfully transfected cells with geneticin resistance by adding G418 (200 μg·ml^−1) to the medium. The cells were cultured in these media at 37°C and 10% CO2 until membrane preparations were generated.
Recombinant HEK cells were cultured to 70% of confluence. The culture medium was discarded, and cells were washed once with approximately 5 ml of PBS. Dishes were stored at −20°C until further use. After defrosting, cells were detached with a rubber scraper after adding 5‐mM Tris–HCl, 2‐mM EDTA, pH 7.4. The collected cell suspension was homogenized using an Ultra‐Turrax® for 1 min at a speed level of 4. The cell suspension was transferred into tubes and centrifuged for 10 min at 1,000 g, 4°C. The pellet (P1) was discarded, and the supernatant was centrifuged for 45 min at 48,400 g, 4°C. The resulting supernatant was discarded, and the pellet (P2) was resuspended in 50‐mM Tris–HCl, pH 7.4, and centrifuged again for 45 min at 48,400 g, 4°C. This step was repeated once again, and the suspension was subsequently homogenized using an Ultra‐Turrax® for 1 min at a speed level of 4 (IKA Laborechnik), transferred into cryovials, and stored at −80°C (for up to several months). […]
The experiments were performed in 50‐mM Tris–HCl buffer, pH 7.4. […] Non‐specific binding was determined in the presence of 5‐μM FR. […] Luma Safe® scintillation cocktail (2.5 ml) was added, and after 6 hr of incubation, the samples were counted for 1 min each, using a liquid scintillation counter (counting efficiency 53%). […]

Test [1] concerns Gq signalling via recombinantly expressed human P2Y1 receptor. Put plainly: Calcium mobilization assay, ADP-induced (P2Y1 receptor) in 1321N1 astrocytoma cells. The format is cell-based. The following applies: Homo sapiens; versus ADP (EC80), P2Y1 receptor, 1321N1 astrocytoma cells; read-out: pIC50, inhibition of calcium mobilization (converted). The procedure: The functional activity of YM, FR, and Ebselen as Gq protein inhibitors was determined by assessing their ability to antagonize ADP‐induced calcium mobilization in 1321N1 astrocytoma cells stably transfected with the human P2Y1 receptor, which is a Gq‐coupled receptor. In addition, the compounds' inhibitory effects on Carbachol‐induced calcium mobilization were studied in the same cell line, which endogenously express the Gq‐coupled muscarinic M3 ACh receptor. The assays were performed according to a previously described procedure (Rafehi et al., 2017) using a NOVOstar microplate reader (BMG Labtech, Offenburg, Germany).

The structures appear in SMILES notation. pIC50: −log10 of the molar value. Where two headings read alike, the source gives them in different places. *1 amine or outer side, *2 acyl side, *3 side chain or, on linkers, in order; H or OH if unused. Where a SMILES comes first, the peptide text is derived from it. Bridges are numbered along the chain shown (N, C = ends). [ ]: non-standard residue; d: D form. The star is where a group is joined. Leu(3R-O(AcLeu(3R-OH))) = CC(=O)N[C@H](C(=O)O[C@H](C(C)C)[C@H](N)C(=O)O)[C@H](O)C(C)C; Leu(3R-OH,Nα-propionyl) = CCC(=O)N[C@H](C(=O)*)[C@H](O)C(C)C; X1 = CC(C)[C@@H](O[*:3])[C@H](N[*:1])C(=O)[*:2]; NMeT = CN[C@H](C(=O)O)[C@@H](C)O; dPhLac = O=C(O)[C@H](O)Cc1ccccc1; NMeA = CN[C@@H](C)C(=O)O; NMeDha = C=C(NC)C(=O)O

The compound `C=C1C(=O)N[C@@H](C)C(=O)N(C)[C@@H](C)C(=O)N[C@@H]([C@H](OC(=O)[C@@H](NC(=O)CC)[C@H](O)C(C)C)C(C)C)C(=O)N(C)[C@@H]([C@@H](C)OC)C(=O)O[C@H](C(C)C)[C@H](NC(C)=O)C(=O)O[C@H](Cc2ccccc2)C(=O)N1C` [FR, FR900359] (Ac-[X1][dPhLac][NMeDha]A[NMeA][X1](Leu(3R-OH,Nα-propionyl))[NMeT](Me); ester 1-C) showed a pIC50 at mouse Gαq of 7.88. For the same compound, the “Pseudo-Bmax ± SD” value at mouse Gαq (FR versus [³H]PSB-15900 (5 nM), 37°C, Gq) came out at 6.09 ± 0.59 pmol/mg. Besides, the IC50 in test [1] was 0.692 nM.

For `C=C1C(=O)N[C@@H](C)C(=O)N(C)[C@@H](C)C(=O)N[C@@H]([C@H](OC(=O)[C@@H](NC(C)=O)[C@H](O)C(C)C)C(C)C)C(=O)N(C)[C@@H]([C@@H](C)OC)C(=O)O[C@H](C)[C@H](NC(C)=O)C(=O)O[C@H](Cc2ccccc2)C(=O)N1C` [YM, YM‐254890] (Ac-T[dPhLac][NMeDha]A[NMeA][Leu(3R-O(AcLeu(3R-OH)))][NMeT](Me); ester 1-C), on mouse Gαq (YM versus [³H]PSB-16254 (5 nM), 37°C, Gq), the “Pseudo-Bmax ± SD” value came out at 6.04 ± 1.43 pmol/mg. Further, the IC50 is 6.17 nM at mouse Gαq (YM versus [³H]PSB-16254 (5 nM), 37°C, Gq, read-out: pIC50 ± SD (converted)) and 0.955 nM in test [1].
